Key:
[1] = molecular target: SOS1 and KRAS G12D (Homo sapiens (Human), UniProt Q07889); assay: KRAS::SOS1 AlphaScreen Binding Assay; settings: SOS1 (564-1049), KRAS G12D (1-169), GDP
From the text: a. KRAS::SOS1 AlphaScreen Binding Assay
Low IC50 values of given compounds are indicative of high potency of the SOS1 inhibitor compounds in this assay setting.
• GST-TEV-SOS1 (564-1049) and His-TEV-Avi-KRAS G12D (1-169) are purchased from Viva Biotech (Shanghai) Ltd. • GDP (Sigma, Cat. G7127) • AlphaLISA Glutathione Acceptor Beads (PerkinElmer, Cat. AL109C) • AlphaScreen Streptavidin Donor Beads (PerkinElmer, Cat. 6760002S) • Assay plates: ProxiPlate-384 Plus, White 384-shallow well Microplate (PerkinElmer, Cat. 6008280)
SOS1 inhibitor compounds are diluted to a final start concentration of […]. Serial dilutions of compounds are made using Tecan D300e Digital Dispenser in 9 concentrations with serial 1:3 dilutions. 100 nL of compound solution is transferred to the 384-well assay plate per well, covering a range between 1 μM and 0.15 nM minimum in duplicate. 10 nM (final assay concentration) KRAS G12D, 5 nM (final assay concentration) SOS1 and 10 μM (final assay concentration) GDP are mixed in assay buffer, and 5 μL of KRAS::SOS1 GDP mix is added into the assay plate to the 100 nL of compound solution (final dilution in the assay 1:100, final DMSO concentration 1%). After a 30 min incubation, AlphaLISA Glutathione Acceptor Beads and AlphaScreen Streptavidin Donor Beads are mixed in assay buffer at a concentration of 5 µg/mL (final assay concentration), and 5 μL of bead mix is added into the assay plate. Plates are kept at room temperature in a darkened incubator for 3 h. After a 3 h incubation, the signal is determined using Envision (PerkinElmer). The excitation wavelength is 680 nm, and emission 615 nm. IC50 values are calculated and analyzed using GraphPad Prism.

[2] = test system: NCI-H358; assay: Cell proliferation assay, 3D, CellTiter-Glo 3D; format: cell-based, human; settings: Homo sapiens, 72 h; NCI-H358 (KRAS G12C), 3D ultra-low attachment, 3 days; read-out: anit-prolif. H358 IC50
Description: b. Cell Proliferation Assay
Low IC50 values are indicative of high potency of the compounds in this assay setting.
Cell proliferation assay is performed in three-dimensional (3D) ultra-low conditions with the human cell line NCI-H358, a human non-small cell lung cancer (NSCLC) cell line with a KRAS G12C mutation.
• 96-well Clear Round Bottom Ultra-Low Attachment Microplate (Corning, Cat. 7007) • 96-well Flat Clear Bottom White Polystyrene TC-treated Microplates (Corning, Cat. 3610) • RPMI-1640 Medium (Gibco, Cat. 22400105) • Fetal Bovine Serum (FBS) (Gibco, Cat. 10099141C) • 0.25% Trypsin-EDTA (Gibco, Cat. 25200056) • Penicillin-Streptomycin (Gibco, Cat. 15140122) • CellTiter-Glo 3D Cell Viability Assay (Promega, Cat. G9683)
NCI-H358 cells (ATCC, Cat. CRL-5807) are grown in cell culture flasks using RPMI medium supplemented with 10% FBS. Cells are incubated at 37° C. and 5% C02 in a humidified atmosphere, with sub-cultivation performed twice a week. Cells are trypsinized, counted and plated in 96-well ultra-low adhesion plates for 3D cell viability determination. The day after plating, serial dilutions of SOS1 inhibitor compounds are made using Tecan D300e Digital Dispenser to evaluate a concentration-dependent effect on cell viability. The concentration of the test compounds covers a range between 5 μM and 0.76 nM with serial 1:3 dilutions in 9 concentrations. 0.5 μL serial dilutions of the compounds are added in duplicates. 3 days later, the CellTiter-Glo 3D Cell Viability Assay is used to measure cell viability effects of SOS1 inhibitor compounds in 3D format. Luminescent intensity is determined using Envision (PerkinElmer). Data is analyzed and IC50 values are calculated using GraphPad Prism.

Chain of SOS1 and KRAS G12D (Q07889 564-1049, stated change not applied): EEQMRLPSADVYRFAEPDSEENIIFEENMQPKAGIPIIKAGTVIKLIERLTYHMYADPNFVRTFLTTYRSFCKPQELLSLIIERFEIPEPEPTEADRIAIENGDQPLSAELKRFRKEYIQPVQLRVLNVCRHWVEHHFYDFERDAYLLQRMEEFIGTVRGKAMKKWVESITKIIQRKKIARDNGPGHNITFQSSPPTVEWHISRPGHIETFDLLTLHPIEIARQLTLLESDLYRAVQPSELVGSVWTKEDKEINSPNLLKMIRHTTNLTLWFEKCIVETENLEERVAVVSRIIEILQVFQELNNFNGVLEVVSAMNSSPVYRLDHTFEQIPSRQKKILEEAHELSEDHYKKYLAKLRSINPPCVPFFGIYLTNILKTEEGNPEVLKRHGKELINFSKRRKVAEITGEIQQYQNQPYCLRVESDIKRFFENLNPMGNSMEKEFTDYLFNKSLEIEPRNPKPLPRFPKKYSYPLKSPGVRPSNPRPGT

Compound: Cc1nc(N[C@H](C)c2cccc(C(F)F)c2F)c2cn(N3CCCC3)c(=O)cc2n1 [Example 35]
- IC50 [1]: ≤ 15 nM
- IC50 [2]: 100 to 500 nM

Compound: Cc1nc(N[C@H](C)c2cccc(C(F)F)c2F)c2cn(N3CCS(=O)(=O)CC3)c(=O)cc2n1 [Example 36]
- IC50 [1]: ≤ 15 nM
- IC50 [2]: 100 to 500 nM

Compound: Cc1nc(N[C@H](C)c2cccc(C(F)F)c2F)c2cn(N3CCC(O)CC3)c(=O)cc2n1 [Example 37]
- IC50 [1]: ≤ 15 nM
- IC50 [2]: 100 to 500 nM

Compound: Cc1nc(N[C@H](C)c2cccc(C(F)F)c2F)c2cn(N3CCCC3=O)c(=O)cc2n1 [Example 38]
- IC50 [1]: ≤ 15 nM
- IC50 [2]: 500 to 1000 nM

Compound: Cc1nc(N[C@H](C)c2cccc(C(F)F)c2F)c2cn(N3CCOC3=O)c(=O)cc2n1 [Example 39]
- IC50 [1]: ≤ 15 nM
- IC50 [2]: 100 to 500 nM

Compound: Cc1nc(N[C@H](C)c2cccc(C(F)F)c2F)c2cn(N3CCOCC3)c(=O)c(Br)c2n1 [Example 40, 8-bromo-4-[[(1R)-1-[3-(difluoromethyl)-2-fluoro-phenyl]ethyl]amino]-2-methyl-6-morpholino-pyrido[4,3-d]pyrimidin-7-one]
- IC50 [1]: ≤ 15 nM
- IC50 [2]: ≤ 100 nM

Compound: Cc1nc(N[C@H](C)c2cccc(C(F)F)c2F)c2cn(N3CCOCC3)c(=O)c(C#N)c2n1 [Example 41, 4-[[(1R)-1-[3-(difluoromethyl)-2-fluoro-phenyl]ethyl]amino]-2-methyl-6-morpholino-7-oxo-pyrido[4,3-d]pyrimidine-8-carbonitrile]
- IC50 [1]: 15 to 150 nM
- IC50 [2]: 100 to 500 nM

Compound: Cc1nc(N[C@H](C)c2cccc(C(F)F)c2F)c2cn(N3CCOCC3)c(=O)c(C3CC3)c2n1 [Example 42, 8-cyclopropyl-4-[[(1R)-1-[3-(difluoromethyl)-2-fluoro-phenyl]ethyl]amino]-2-methyl-6-morpholino-pyrido[4,3-d]pyrimidin-7-one]
- IC50 [1]: ≤ 15 nM
- IC50 [2]: 100 to 500 nM

Compound: Cc1nc(N[C@H](C)c2cccc(C(F)F)c2F)c2cn(N3CCOCC3)c(=O)c(C)c2n1 [Example 44]
- IC50 [1]: ≤ 15 nM
- IC50 [2]: ≤ 100 nM

Compound: Cc1nc(N[C@H](C)c2cccc(C(F)F)c2F)c2cn(N3CCOCC3)c(=O)c(-c3cccnc3)c2n1 [Example 45]
- IC50 [1]: ≤ 15 nM
- IC50 [2]: ≤ 100 nM

Compound: Cc1nc(N[C@H](C)c2cccc(C(F)F)c2F)c2cn(N3CCOCC3)c(=O)c(-c3ccncc3)c2n1 [Example 46]
- IC50 [1]: ≤ 15 nM
- IC50 [2]: ≤ 100 nM

Compound: Cc1nc(N[C@H](C)c2cccc(C(F)F)c2F)c2cn(N3CCOCC3)c(=O)c(-c3ccccc3)c2n1 [Example 47]
- IC50 [1]: ≤ 15 nM
- IC50 [2]: 100 to 500 nM

Compound: Cc1nc(N[C@H](C)c2cccc(C(F)F)c2F)c2cn(N3CCOCC3)c(=O)c(-c3ccc(N)nc3)c2n1 [Example 48]
- IC50 [1]: ≤ 15 nM
- IC50 [2]: 100 to 500 nM

Compound: Cc1nc(N[C@H](C)c2cccc(C(F)F)c2F)c2cn(N3CCOCC3)c(=O)c(-c3ccc(=O)[nH]c3)c2n1 [Example 49]
- IC50 [1]: ≤ 15 nM
- IC50 [2]: 500 to 1000 nM

Compound: Cc1nc(N[C@H](C)c2cccc(C(F)F)c2F)c2cn(N3CCOCC3)c(=O)c(-c3ccc(F)nc3)c2n1 [Example 50]
- IC50 [1]: ≤ 15 nM
- IC50 [2]: 100 to 500 nM

Compound: Cc1nc(N[C@H](C)c2cccc(C(F)F)c2F)c2cn(N3CCOCC3)c(=O)c(-c3ccc[nH]c3=O)c2n1 [Example 51]
- IC50 [1]: ≤ 15 nM
- IC50 [2]: > 1000 nM

Compound: Cc1nc(N[C@H](C)c2cccc(C(F)F)c2F)c2cn(N3CCOCC3)c(=O)c(-c3cncnc3)c2n1 [Example 52]
- IC50 [1]: ≤ 15 nM
- IC50 [2]: ≤ 100 nM

Compound: Cc1nc(N[C@H](C)c2cccc(C(F)F)c2F)c2cn(N3CCOCC3)c(=O)c(C3=CCOC3)c2n1 [Example 54]
- IC50 [1]: ≤ 15 nM
- IC50 [2]: 100 to 500 nM

Compound: Cc1nc(N[C@H](C)c2cccc(C(F)F)c2F)c2cn(N3CCOCC3)c(=O)c(C3=CCN(S(C)(=O)=O)CC3)c2n1 [Example 55]
- IC50 [1]: ≤ 15 nM
- IC50 [2]: 100 to 500 nM

Compound: C=C(C)c1c(=O)n(N2CCOCC2)cc2c(N[C@H](C)c3cccc(C(F)F)c3F)nc(C)nc12 [Example 56]
- IC50 [1]: ≤ 15 nM
- IC50 [2]: 100 to 500 nM

Compound: Cc1nc(N[C@H](C)c2cccc(C(F)F)c2F)c2cn(N3CCOCC3)c(=O)c(-c3ccc(C#N)cc3)c2n1 [Example 57]
- IC50 [1]: ≤ 15 nM
- IC50 [2]: ≤ 100 nM

Compound: COc1ccc(-c2c(=O)n(N3CCOCC3)cc3c(N[C@H](C)c4cccc(C(F)F)c4F)nc(C)nc23)cn1 [Example 58]
- IC50 [1]: ≤ 15 nM
- IC50 [2]: ≤ 100 nM

Compound: Cc1ccc(-c2c(=O)n(N3CCOCC3)cc3c(N[C@H](C)c4cccc(C(F)F)c4F)nc(C)nc23)cn1 [Example 59]
- IC50 [1]: ≤ 15 nM
- IC50 [2]: ≤ 100 nM

Compound: Cc1nc(N[C@H](C)c2cccc(C(F)F)c2F)c2cn(N3CCOCC3)c(=O)c(-c3ccc(C(F)(F)F)nc3)c2n1 [Example 60]
- IC50 [1]: 15 to 150 nM
- IC50 [2]: ≤ 100 nM

Compound: Cc1nc(N[C@H](C)c2cccc(C(F)F)c2F)c2cn(N3CCOCC3)c(=O)c(-c3ccc(C#N)c(F)c3)c2n1 [Example 62]
- IC50 [1]: 15 to 150 nM
- IC50 [2]: 100 to 500 nM

Compound: Cc1nc(N[C@H](C)c2cccc(C(F)F)c2F)c2cn(N3CCOCC3)c(=O)c(-c3ccc(F)c(C#N)c3)c2n1 [Example 63]
- IC50 [1]: 15 to 150 nM
- IC50 [2]: 500 to 1000 nM

Compound: Cc1nc(N[C@H](C)c2cccc(C(F)F)c2F)c2cn(N3CCOCC3)c(=O)c(-c3cc(F)cc(C#N)c3)c2n1 [Example 64]
- IC50 [1]: 15 to 150 nM
- IC50 [2]: 500 to 1000 nM

Compound: Cc1nc(N[C@H](C)c2cccc(C(F)F)c2F)c2cn(N3CCOCC3)c(=O)c(-c3cc(C#N)ccc3F)c2n1 [Example 65]
- IC50 [1]: 15 to 150 nM
- IC50 [2]: 100 to 500 nM

Compound: Cc1nc(N[C@H](C)c2cccc(C(F)F)c2F)c2cn(N3CCOCC3)c(=O)c(-c3cnc(C#N)nc3)c2n1 [Example 66]
- IC50 [1]: ≤ 15 nM
- IC50 [2]: ≤ 100 nM

Compound: Cc1nc(N[C@H](C)c2cccc(C(F)F)c2F)c2cn(N3CCOCC3)c(=O)c(-c3cnc(C#N)c(F)c3)c2n1 [Example 67]
- IC50 [1]: 15 to 150 nM
- IC50 [2]: ≤ 100 nM

Compound: Cc1nc(N[C@H](C)c2cccc(C(F)F)c2F)c2cn(N3CCOCC3)c(=O)c(-c3ccnc(C#N)c3)c2n1 [Example 68]
- IC50 [1]: ≤ 15 nM
- IC50 [2]: 100 to 500 nM

Compound: Cc1nc(N[C@H](C)c2cccc(C(F)F)c2F)c2cn(N3CCOCC3)c(=O)c(-c3cn(CC(F)F)cn3)c2n1 [Example 69]
- IC50 [1]: ≤ 15 nM
- IC50 [2]: ≤ 100 nM

Compound: Cc1nc(N[C@H](C)c2cccc(C(F)F)c2F)c2cn(N3CCOCC3)c(=O)c(-c3cnn(C)c3)c2n1 [Example 70]
- IC50 [1]: ≤ 15 nM
- IC50 [2]: 100 to 500 nM

Compound: Cc1nc(N[C@H](C)c2cccc(C(F)F)c2F)c2cn(N3CCOCC3)c(=O)c(-c3ccc(P(C)(C)=O)nc3)c2n1 [Example 71]
- IC50 [1]: ≤ 15 nM
- IC50 [2]: 100 to 500 nM

Compound: Cc1nc(N[C@H](C)c2cccc(C(F)F)c2F)c2cn(N3CCOCC3)c(=O)c(-c3ccc4nncn4c3)c2n1 [Example 72]
- IC50 [1]: ≤ 15 nM
- IC50 [2]: 100 to 500 nM

Compound: Cc1nc(N[C@H](C)c2cccc(C(F)F)c2F)c2cn(N3CCOCC3)c(=O)c(-c3ccc4nccn4c3)c2n1 [Example 73]
- IC50 [1]: ≤ 15 nM
- IC50 [2]: ≤ 100 nM

Compound: Cc1nc(N[C@H](C)c2cccc(C(F)F)c2F)c2cn(N3CCOCC3)c(=O)c(-c3ccccn3)c2n1 [Example 74, (R)-4-((1-(3-(difluoromethyl)-2-fluorophenyl)ethyl)amino)-2-methyl-6-morpholino-8-(pyridin-2-yl)pyrido[4,3-d]pyrimidin-7(6H)-one]
- IC50 [1]: ≤ 15 nM
- IC50 [2]: 100 to 500 nM

Compound: Cc1nc(N[C@H](C)c2cccc(C(F)F)c2F)c2cn(N3CCOCC3)c(=O)c(-c3ccc(C#N)nc3)c2n1 [Example 75, (R)-5-(4-((1-(3-(difluoromethyl)-2-fluorophenyl)ethyl)amino)-2-methyl-6-morpholino-7-oxo-6,7-dihydropyrido[4,3-]pyrimidin-8-yl)picolinonitrile]
- IC50 [1]: ≤ 15 nM
- IC50 [2]: ≤ 100 nM
